The values that follow come from patent publication US20240228504A1, “SUBSTITUTED TRICYCLIC AMIDES, ANALOGUES THEREOF, AND METHODS USING SAME” (Arbutus Biopharma Corporation, priority 2020, published 2024).

Molecules are shown by their SMILES. pEC50: −log10 of the molar value.

For orientation: pEC50 means the negative decadic logarithm of the EC50, by convention in mol/L.

This test has as its system HBV rcDNA in HepDE19 cells. Nature of the test: HepDE19 assay with bDNA quantitation of HBV rcDNA. The class given is cell-based, hepatitis B virus. The settings on record: HepDE19 assay, inhibition of rcDNA formation, bDNA quantitation; read-out: DE-19bDNA EC50.
For the compound `CN(C(=O)c1cc2cc(F)ccc2[nH]1)C1COCc2[nH]c(=O)c3cc(F)ccc3c21` (single isomer, unassigned) [Compound 29, 5-Fluoro-N-(8-fluoro-6-oxo-1,4,5,6-tetrahydro-2H-pyrano[3,4-c]isoquinolin-1-yl)-N-methyl-1H-indole-2-carboxamide], the pEC50 is 5.82.
The same measure for `CN(C(=O)c1cc2cc(F)ccc2[nH]1)C1COCc2[nH]c(=O)c3cc(F)ccc3c21` (single isomer, unassigned) [Compound 30, 5-Fluoro-N-(8-fluoro-6-oxo-1,4,5,6-tetrahydro-2H-pyrano[3,4-c]isoquinolin-1-yl)-N-methyl-1H-indole-2-carboxamide]: 8.00; for `CN(C(=O)c1cc2ccc(F)cc2[nH]1)C1COCc2[nH]c(=O)c3cc(F)ccc3c21` (single isomer, unassigned) [Compound 31, 6-Fluoro-N-(8-fluoro-6-oxo-1,4,5,6-tetrahydro-2H-pyrano[3,4-c]isoquinolin-1-yl)-N-methyl-1H-indole-2-carboxamide]: 5.92; for `CN(C(=O)c1cc2ccc(F)cc2[nH]1)C1COCc2[nH]c(=O)c3cc(F)ccc3c21` (single isomer, unassigned) [Compound 32, 6-Fluoro-N-(8-fluoro-6-oxo-1,4,5,6-tetrahydro-2H-pyrano[3,4-c]isoquinolin-1-yl)-N-methyl-1H-indole-2-carboxamide]: 7.70.
For the compound `CN(C(=O)c1cc2cccc(F)c2[nH]1)C1COCc2[nH]c(=O)c3cc(F)ccc3c21` (single isomer, unassigned) [Compound 33, 7-Fluoro-N-(8-fluoro-6-oxo-1,4,5,6-tetrahydro-2H-pyrano[3,4-c]isoquinolin-1-yl)-N-methyl-1H-indole-2-carboxamide], the pEC50 was 5.74.
Consider `CN(C(=O)c1cc2cccc(F)c2[nH]1)C1COCc2[nH]c(=O)c3cc(F)ccc3c21` (single isomer, unassigned) [Compound 34, 7-Fluoro-N-(8-fluoro-6-oxo-1,4,5,6-tetrahydro-2H-pyrano[3,4-c]isoquinolin-1-yl)-N-methyl-1H-indole-2-carboxamide], for which the pEC50 is 7.52.
As for `CN(C(=O)c1cc2c(F)cc(F)cc2[nH]1)C1COCc2[nH]c(=O)c3cc(F)ccc3c21` (single isomer, unassigned) [Compound 35, 4,6-Difluoro-N-(8-fluoro-6-oxo-1,4,5,6-tetrahydro-2H-pyrano[3,4-c]isoquinolin-1-yl)-N-methyl-1H-indole-2-carboxamide], the pEC50 was 5.85.
With `CN(C(=O)c1cc2c(F)cc(F)cc2[nH]1)C1COCc2[nH]c(=O)c3cc(F)ccc3c21` (single isomer, unassigned) [Compound 36, 4,6-Difluoro-N-(8-fluoro-6-oxo-1,4,5,6-tetrahydro-2H-pyrano[3,4-c]isoquinolin-1-yl)-N-methyl-1H-indole-2-carboxamide], the pEC50 is 7.70.
`CN(C(=O)c1cc2c(F)c(F)ccc2[nH]1)C1COCc2[nH]c(=O)c3cc(F)ccc3c21` (single isomer, unassigned) [Compound 37, 4,5-Difluoro-N-(8-fluoro-6-oxo-1,4,5,6-tetrahydro-2H-pyrano[3,4-c]isoquinolin-1-yl)-N-methyl-1H-indole-2-carboxamide]: the pEC50 is 6.15.
Regarding `CN(C(=O)c1cc2c(F)c(F)ccc2[nH]1)C1COCc2[nH]c(=O)c3cc(F)ccc3c21` (single isomer, unassigned) [Compound 38, 4,5-Difluoro-N-(8-fluoro-6-oxo-1,4,5,6-tetrahydro-2H-pyrano[3,4-c]isoquinolin-1-yl)-N-methyl-1H-indole-2-carboxamide], the negative-log EC50 (pEC50) is 8.00.
On to `CN(C(=O)c1cc2cccc(F)c2[nH]1)C1COCc2[nH]c(=O)c3cc(F)c(F)cc3c21` (single isomer, unassigned) [Compound 39, N-(8,9-Difluoro-6-oxo-1,4,5,6-tetrahydro-2H-pyrano[3,4-c]isoquinolin-1-yl)-7-fluoro-N-methyl-1H-indole-2-carboxamide], for which the pEC50 is 6.11.
In the case of `CN(C(=O)c1cc2cccc(F)c2[nH]1)C1COCc2[nH]c(=O)c3cc(F)c(F)cc3c21` (single isomer, unassigned) [Compound 40, N-(8,9-Difluoro-6-oxo-1,4,5,6-tetrahydro-2H-pyrano[3,4-c]isoquinolin-1-yl)-7-fluoro-N-methyl-1H-indole-2-carboxamide], the pEC50 is 8.00.
As for `CN(C(=O)c1cc2c(F)cc(F)cc2[nH]1)C1COCc2[nH]c(=O)c3cc(F)c(F)cc3c21` (single isomer, unassigned) [Compound 43, N-(8,9-Difluoro-6-oxo-1,4,5,6-tetrahydro-2H-pyrano[3,4-c]isoquinolin-1-yl)-4,6-difluoro-N-methyl-1H-indole-2-carboxamide], the pEC50 is 5.74.
On to `CN(C(=O)c1cc2c(F)cc(F)cc2[nH]1)C1COCc2[nH]c(=O)c3cc(F)c(F)cc3c21` (single isomer, unassigned) [Compound 44, N-(8,9-Difluoro-6-oxo-1,4,5,6-tetrahydro-2H-pyrano[3,4-c]isoquinolin-1-yl)-4,6-difluoro-N-methyl-1H-indole-2-carboxamide], for which the negative-log EC50 (pEC50) was 8.00.
The same measure for `CN(C(=O)c1cc2c(F)c(F)ccc2[nH]1)C1COCc2[nH]c(=O)c3cc(F)c(F)cc3c21` (single isomer, unassigned) [Compound 45, N-(8,9-Difluoro-6-oxo-1,4,5,6-tetrahydro-2H-pyrano[3,4-c]isoquinolin-1-yl)-4,5-difluoro-N-methyl-1H-indole-2-carboxamide]: 6.51.
For the compound `CN(C(=O)c1cc2c(F)c(F)ccc2[nH]1)C1COCc2[nH]c(=O)c3cc(F)c(F)cc3c21` (single isomer, unassigned) [Compound 46, N-(8,9-Difluoro-6-oxo-1,4,5,6-tetrahydro-2H-pyrano[3,4-c]isoquinolin-1-yl)-4,5-difluoro-N-methyl-1H-indole-2-carboxamide], the pEC50 was 8.30.
Consider `CN(C(=O)c1cc2c([nH]1)CCC(F)(F)C2)C1COCc2[nH]c(=O)c3cc(F)c(F)cc3c21` (single isomer, unassigned) [Compound 47, N-(8,9-Difluoro-6-oxo-1,4,5,6-tetrahydro-2H-pyrano[3,4-c]isoquinolin-1-yl)-5,5-difluoro-N-methyl-4,5,6,7-tetrahydro-1H-indole-2-carboxamide], for which the pEC50 is 7.70.
In the case of `CN(C(=O)c1cc2c([nH]1)CCC(F)(F)C2)C1COCc2[nH]c(=O)c3cc(F)c(F)cc3c21` (single isomer, unassigned) [Compound 48, N-(8,9-Difluoro-6-oxo-1,4,5,6-tetrahydro-2H-pyrano[3,4-c]isoquinolin-1-yl)-5,5-difluoro-N-methyl-4,5,6,7-tetrahydro-1H-indole-2-carboxamide], the pEC50 was 6.11.
Regarding `CN(C(=O)c1cc2cc(F)c(F)cc2[nH]1)C1COCc2[nH]c(=O)c3cc(F)ccc3c21` (single isomer, unassigned) [Compound 49, 5,6-Difluoro-N-(8-fluoro-6-oxo-1,4,5,6-tetrahydro-2H-pyrano[3,4-c]isoquinolin-1-yl)-N-methyl-1H-indole-2-carboxamide], the negative-log EC50 (pEC50) was 5.68.
As to `CN(C(=O)c1cc2cc(F)c(F)cc2[nH]1)C1COCc2[nH]c(=O)c3cc(F)ccc3c21` (single isomer, unassigned) [Compound 50, 5,6-Difluoro-N-(8-fluoro-6-oxo-1,4,5,6-tetrahydro-2H-pyrano[3,4-c]isoquinolin-1-yl)-N-methyl-1H-indole-2-carboxamide], the pEC50 was 8.00.
Turning to `CN(C(=O)c1cc2ccccc2[nH]1)C1CNCc2[nH]c(=O)c3cc(F)c(F)cc3c21` (single isomer, unassigned) [Compound 54, N-(8,9-Difluoro-6-oxo-1,2,3,4,5,6-hexahydrobenzo[c][1,7]naphthyridin-1-yl)-N-methyl-1H-indole-2-carboxamide], the pEC50 is 6.07.
Consider `CN(C(=O)c1cc2ccccc2[nH]1)C1CNCc2[nH]c(=O)c3cc(F)c(F)cc3c21` (single isomer, unassigned) [Compound 55, N-(8,9-Difluoro-6-oxo-1,2,3,4,5,6-hexahydrobenzo[c][1,7]naphthyridin-1-yl)-N-methyl-1H-indole-2-carboxamide], for which the pEC50 was 8.00.
The same measure for `CN1Cc2[nH]c(=O)c3cc(F)ccc3c2C(N(C)C(=O)c2cc3ccccc3[nH]2)C1` (single isomer, unassigned) [Compound 60, N-(8-Fluoro-3-methyl-6-oxo-1,2,3,4,5,6-hexahydrobenzo[c][1,7]naphthyridin-1-yl)-N-methyl-1H-indole-2-carboxamide]: 5.23; for `CN1Cc2[nH]c(=O)c3cc(F)ccc3c2C(N(C)C(=O)c2cc3ccccc3[nH]2)C1` (single isomer, unassigned) [Compound 61, N-(8-Fluoro-3-methyl-6-oxo-1,2,3,4,5,6-hexahydrobenzo[c][1,7]naphthyridin-1-yl)-N-methyl-1H-indole-2-carboxamide]: 5.64; for `CN1Cc2[nH]c(=O)c3cc(F)c(F)cc3c2C(N(C)C(=O)c2cc3ccccc3[nH]2)C1` (single isomer, unassigned) [Compound 62, N-(8,9-Difluoro-3-methyl-6-oxo-1,2,3,4,5,6-hexahydrobenzo[c][1,7]naphthyridin-1-yl)-N-methyl-1H-indole-2-carboxamide]: 5.29.
For `CN1Cc2[nH]c(=O)c3cc(F)c(F)cc3c2C(N(C)C(=O)c2cc3ccccc3[nH]2)C1` (single isomer, unassigned) [Compound 63, N-(8,9-Difluoro-3-methyl-6-oxo-1,2,3,4,5,6-hexahydrobenzo[c][1,7]naphthyridin-1-yl)-N-methyl-1H-indole-2-carboxamide], the pEC50 is 6.77.
Consider `CC(=O)N1Cc2[nH]c(=O)c3cc(F)ccc3c2C(N(C)C(=O)c2cc3ccccc3[nH]2)C1` (single isomer, unassigned) [Compound 68, N-(3-Acetyl-8-fluoro-6-oxo-1,2,3,4,5,6-hexahydrobenzo[c][1,7]naphthyridin-1-yl)-N-methyl-1H-indole-2-carboxamide], for which the negative-log EC50 (pEC50) is 5.26.
